Laboratory results reported in US20090191193A1, “Aryl Vinyl Sulfides, Sulfones, Sulfoxides and Sulfonamides, Derivatives Thereof and Therapeutic Uses Thereof” (TEMPLE UNIVERSITY-OF THE COMMONWEALTH SYSTEM OF HIGHER …, priority 2006, published 2009).

Columns and labels:
DU145 (prostate cancer) = assay: Effect on tumor cell lines, viable cell count by trypan blue exclusion (Latham et al.): DU145; format: cell-based; conditions: DU145 prostate cancer cells, viable cell count 96 hours after treatment
Description: (§1) The effect of the compounds of the invention on tumor cells was determined by the assay described by Latham et al., Oncogene 12:827-837 (1996). Tumor cells DU145 (prostate cancer), K562 (chronic myelogenous leukaemia), BT20 (breast carcinoma), H157 (non small cell lung carcinoma), or DLD1 (colon carcinoma) were plated in 6-well dishes at a cell density of 1.0×10^5 cells per 35-mm^2 well. […] The total number of viable cells was determined 96 hours later by trypsinizing the wells and counting the number of viable cells, as determined by trypan blue exclusion, using a hemacytometer. Normal HFL cells were treated with the same compounds under the same conditions of concentration and time.

[1] = test system: K562 (chronic myelogenous leukaemia); assay: Effect on tumor cell lines, viable cell count by trypan blue exclusion (Latham et al.): K562; format: cell-based; conditions: K562 chronic myelogenous leukaemia cells, viable cell count 96 hours after treatment
Description: as §1

Structure (SMILES) | melting point [°C] | IC50 (DU145 (prostate cancer); Homo sapiens, DU-145, 96 h) [µM] | other results
N#C/C(=C\c1ccc(-c2ccccc2)cc1)S(=O)(=O)Cc1ccccc1 [Example 138] |  |  | IC50 (DU145 (prostate cancer)): > 100 µM; IC50 [1]: > 100 µM
COc1ccc(CS(=O)(=O)/C(C#N)=C/c2ccccc2OC)cc1 [Example 9] | 143 to 145 |  | 
COc1ccc(/C=C(\C(N)=O)S(=O)(=O)Cc2ccc(Cl)cc2Cl)cc1O [Example 154, (E)-2-[(2,4-dichlorophenyl)methanesulfonyl]-3-(3-hydroxy-4-methoxyphenyl)acrylamide] | 185 to 189 |  | 
N#C/C(=C\c1ccc(F)cc1F)S(=O)(=O)Cc1ccc(Br)cc1 [Example 4] | 146 to 148 |  | 
COc1ccc(CS(=O)(=O)/C(C#N)=C/c2c(OC)cccc2OC)cc1 [Example 8] | 108 to 110 | 75 | 
N#C/C(=C\c1ccc(-c2ccccc2)cc1)S(=O)(=O)Cc1ccc(Cl)cc1 [Example 67] |  |  | IC50 (DU145 (prostate cancer)): > 100 µM; IC50 [1]: > 100 µM
COc1ccc(CS(=O)(=O)/C(C#N)=C/c2ccc(OC)c(OC)c2)cc1 [Example 26] | 156 to 158 |  | 
COc1ccc(CS(=O)(=O)/C(C#N)=C/c2ccc(F)cc2Cl)cc1 [Example 15] | 138 to 140 | 25 | 
COc1cc(OC)c(/C=C(\C(N)=O)S(=O)(=O)Cc2ccc(Cl)cc2Cl)c(OC)c1 [Example 152] | 201 to 204 |  | 
Cc1ccc(C)c(/C=C(\C(N)=O)S(=O)(=O)Cc2ccc(F)cc2)c1 [Example 160] | 172 to 176 |  | 
COc1ccc(CS(=O)(=O)/C(C#N)=C/c2ccsc2)cc1 [Example 13] | 142 to 144 |  | 
COc1cc(OC)c(/C=C(\[N+](=O)[O-])S(=O)(=O)c2ccc(Br)cc2)c(OC)c1 [Example 186] | 184 to 186 | 25 | 
CCOc1ccc(/C=C(\C(N)=O)S(=O)(=O)Cc2ccc(Cl)cc2Cl)cc1OC [Example 168, (E)-2-[(2,4-dichlorophenyl)methanesulfonyl]-3-(4-ethoxy-3-methoxyphenyl)acrylamide] | 245 to 247 |  | 
NC(=O)/C(=C\c1ccc(Cl)cc1Cl)S(=O)(=O)Cc1ccc(Cl)cc1 [Example 165] | 206 to 210 |  | 
COc1ccc(CS(=O)(=O)/C(C#N)=C/c2ccc(C#N)cc2F)cc1 [Example 17] | 112 to 114 |  | 
N#C/C(=C\c1ccc(O)c(O)c1)S(=O)(=O)Cc1ccc(Cl)cc1 [Example 24] | 178 to 180 | 10 | 
CC(=O)c1ccc(/C=C(\C(N)=O)S(=O)(=O)Cc2ccc(Cl)cc2Cl)cc1 [Example 167] | 207 to 210 |  | 
COc1cc(OC)c(/C=C(\[N+](=O)[O-])S(=O)(=O)c2ccccc2)c(OC)c1 [Example 187] | 176 to 180 |  | 
COc1ccc(CS(=O)(=O)/C(C#N)=C/c2ccc([N+](=O)[O-])cc2)cc1 [Example 10] | 174 to 176 |  | 
COc1ccc(CS(=O)(=O)/C(C#N)=C/c2ccc(O)c(O)c2)cc1OC [Example 28] | 196 to 198 |  | 

Structure (SMILES) | melting point [°C] | IC50 (DU145 (prostate cancer); Homo sapiens, DU-145, 96 h) [µM] | other results
NC(=O)/C(=C\c1ccc(Br)cc1)S(=O)(=O)Cc1ccc(Cl)cc1Cl [Example 153] | 195 to 196 |  | 
COc1ccc(CS(=O)(=O)/C(=C/c2c(OC)cc(OC)cc2OC)C(N)=O)cc1 [Example 171] | 168 to 171 |  | 
N#C/C(=C\c1ccccc1OC(F)F)S(=O)(=O)Cc1ccc(Br)cc1 [Example 14] | 204 to 206 |  | 
COc1ccc(NS(=O)(=O)/C(C#N)=C/c2c(OC)cccc2OC)cc1 [Example 193] | 154 to 156 |  | 
NC(=O)/C(=C\c1ccc(Br)cc1)S(=O)(=O)Cc1ccc(F)cc1 [Example 161] | 199 to 200 |  | 
COc1ccc(CS(=O)(=O)/C(C#N)=C/c2ccc3oc(=O)[nH]c3c2)cc1 [Example 22] | 210 to 212 | 10 | 
COc1ccc(CS(=O)(=O)/C(C#N)=C/c2ccc3[nH]c(=O)oc3c2)cc1OC [Example 29] |  | 100 | 
COc1ccc(CS(=O)(=O)/C(C#N)=C/c2ccc(F)cc2)cc1 [Example 7] | 171 to 173 | 100 | 
NC(=O)/C(=C\c1cccc(Cl)c1Cl)S(=O)(=O)Cc1ccc([N+](=O)[O-])cc1 [Example 169] | 200 to 202 |  | 
COc1ccc(CS(=O)(=O)/C(C#N)=C/c2ccc(F)cc2F)cc1 [Example 2] | 138 to 140 | 100 | 
COc1ccc(NS(=O)(=O)/C(C#N)=C/c2cc(Cl)cc(Cl)c2Cl)cc1 [Example 294] | 180 to 181 |  | IC50 ([1]; Homo sapiens, K562, 96 h): < 1 µM
N#C/C(=C\c1c(F)c(F)c(F)c(F)c1F)S(=O)(=O)Cc1ccc(F)cc1 [Example 33] | 156 to 158 | 2.5 | 
CCOc1ccc(/C=C(\C(N)=O)S(=O)(=O)Cc2ccc(F)cc2)cc1OC [Example 164, (E)-2-[(4-fluorophenyl)methanesulfonyl]-3-(4-ethoxy-3-methoxyphenyl)acrylamide] | 197 to 202 |  | 
N#C/C(=C\c1ccc([N+](=O)[O-])cc1)S(=O)(=O)Cc1ccc(Br)cc1 [Example 31] | 138 to 142 |  | 
COc1ccc(S(=O)(=O)/C(=C/c2ccc(F)cc2)C(N)=O)cc1 [Example 181] | 154 to 156 |  | 
Cc1cc(C)cc(/C=C(\C(N)=O)S(=O)(=O)Cc2ccc(Cl)cc2)c1 [Example 163] | 172 to 176 |  | 
COc1ccc(CS(=O)(=O)/C(C#N)=C/c2ccc(O)c(O)c2)cc1 [Example 25] | 144 to 146 | 10 | 
COc1ccc(NS(=O)(=O)/C(C#N)=C/c2cc(OC)cc(OC)c2)cc1 [Example 201] | 167 to 168 | > 100 | 
NC(=O)/C(=C\c1cc(F)c(F)cc1F)S(=O)(=O)Cc1ccc(F)cc1 [Example 162] | 168 to 170 |  | 
Cc1ccc(C)c(/C=C(\C(N)=O)S(=O)(=O)Cc2ccc(Cl)cc2)c1 [Example 157] | 79 to 82 |  | 

Now from value to molecule, other results behind:

melting point [°C] | IC50 (DU145 (prostate cancer); Homo sapiens, DU-145, 96 h) [µM] | Structure (SMILES) | other results
140 to 142 | 75 | COc1ccc(CS(=O)(=O)/C(C#N)=C/c2ccc(N)cc2)cc1 [Example 5] | 
 | 50 to 100 | CN(C)c1ccc(/C=C(\C#N)S(=O)(=O)Cc2ccc(Cl)cc2)cc1 [Example 58] | IC50 ([1]; Homo sapiens, K562, 96 h): 25 to 50 µM
158 to 164 |  | NC(=O)/C(=C\c1ccc(Cl)cc1Cl)S(=O)(=O)Cc1ccccc1Cl [Example 156] | 
 | 50 | COc1ccc(CS(=O)(=O)/C(C#N)=C/c2ccc(F)c([N+](=O)[O-])c2)cc1 [Example 3] | 
172 to 175 |  | COc1ccc(S(=O)(=O)/C(=C/c2c(OC)cc(OC)cc2OC)C(N)=O)cc1 [Example 182] | 
208 to 210 | 50 | COc1ccc(CS(=O)(=O)/C(C#N)=C/c2ccc3[nH]c(=O)oc3c2)cc1 [Example 23, (E)-2-[(4-methoxyphenyl)methanesulfonyl]-3-(2-benzoxazolon-6-yl)acrylonitrile] | 
 | 10 | COc1ccc(CS(=O)(=O)/C(C#N)=C/c2c(F)c(F)c(F)c(F)c2F)cc1OC [Example 32] | 
235 to 240 |  | CCOc1ccc(/C=C(\C(N)=O)S(=O)(=O)Cc2ccc([N+](=O)[O-])cc2)cc1OC [Example 159, (E)-2-[(4-nitrophenyl)methanesulfonyl]-3-(4-ethoxy-3-methoxyphenyl)acrylamide] | 
194 to 199 |  | NC(=O)/C(=C\c1ccc(F)cc1Cl)S(=O)(=O)Cc1ccc(Cl)cc1 [Example 166] | 
178 to 180 | 25 | COc1ccc(CS(=O)(=O)/C(C#N)=C/c2c(OC)cc(OC)cc2OC)cc1 [Example 1] | 
164 to 167 |  | COc1cc(OC)c(/C=C(\C(N)=O)S(=O)(=O)c2ccccc2)c(OC)c1 [Example 178] | 
186 to 188 | 100 | COc1ccc(CS(=O)(=O)/C(C#N)=C/c2ccc3c(c2)OCO3)cc1 [Example 27, (E)-2-[(4-methoxyphenyl)methanesulfonyl]-3-(1,3-benzodioxole-5-yl)acrylonitrile] | 
152 to 154 | > 100 | COc1ccc(NS(=O)(=O)/C(C#N)=C/c2ccc(C)c(C)c2)cc1 [Example 203] | 
188 to 193 |  | NC(=O)/C(=C\c1cccc(Cl)c1Cl)S(=O)(=O)Cc1ccc(F)cc1 [Example 155] | 
184 to 186 |  | COc1cc(OC)c(/C=C(\C#N)S(=O)(=O)Cc2ccc(OC)c([N+](=O)[O-])c2)c(OC)c1 [Example 34] | 
174 to 176 | 100 | COc1ccc(CS(=O)(=O)/C(C#N)=C/c2ccc3oc(=O)[nH]c3c2)cc1OC [Example 30] | 
150 to 153 |  | COc1ccc(CS(=O)(=O)/C(C#N)=C/c2ccoc2)cc1 [Example 12] | 
195 to 197 |  | CCOc1ccc(/C=C(\C(N)=O)S(=O)(=O)Cc2ccc(Cl)cc2)cc1OC [Example 158, (E)-2-[(4-chlorophenyl)methanesulfonyl]-3-(4-ethoxy-3-methoxyphenyl)acrylamide] | 
192 to 194 | 50 | COc1cc(OC)c(/C=C(\[N+](=O)[O-])S(=O)(=O)c2ccc(C)cc2)c(OC)c1 [Example 185] | 
193 to 196 |  | Cc1ccc(/C=C(\C(N)=O)S(=O)(=O)Cc2ccc(Cl)cc2Cl)cc1C [Example 151] | 
146 to 148 |  | COc1ccc(CS(=O)(=O)/C(C#N)=C/c2ccc(F)c(N)c2)cc1 [Example 6] | 
